# Reference: ChEMBL document CHEMBL3616462, “Synthesis and antiviral activity of maleopimaric and quinopimaric acids' derivatives” (Bioorg Med Chem, 2015)
# Assays:
# [1] = test system: Influenza B virus; assay: Antiviral activity against Influenza B virus (B/Florida/4/2006) in MDCK cells; type: functional, cell-based; settings: B/Florida/4/2006, MDCK
# [2] = Cytotoxicity against Influenza A virus (A/California/07/2009(H1N1)) infected MDCK cells; type: cell-based, Canis lupus familiaris; settings: dog
# [3] = Antiviral activity against Influenza A virus (A/Viet Nam/1203/2004(H5N1)) infected in MDCK cells; type: functional, cell-based
# [4] = Cytotoxicity against Influenza A virus (A/Brisbane/10/2007(H3N2)) infected MDCK cells; type: cell-based, Canis lupus familiaris; settings: dog
# [5] = Cytotoxicity against Influenza A virus (A/Viet Nam/1203/2004(H5N1)) infected MDCK cells; type: cell-based, Canis lupus familiaris; settings: dog
# [6] = Selectivity index, ratio of CC50 for Influenza A virus (A/California/07/2009(H1N1)) infected MDCK cells to EC50 for antiviral activity against Influenza A virus H1N1 (A/California/07/2009(H1N1)) infected in MDCK cells; type: toxicity, cell-based; settings: dog; read-out: Ratio CC50/EC50
# [7] = Antiviral activity against Influenza A virus (A/Brisbane/10/2007(H3N2)) infected in MDCK cells; type: functional, cell-based
# [8] = Cytotoxicity against Influenza B virus (B/Florida/4/2006) infected MDCK cells; type: cell-based, Canis lupus familiaris; settings: dog
# [9] = Antiviral activity against Influenza A virus (A/California/07/2009(H1N1)) infected in MDCK cells; type: functional, cell-based
# [10] = Selectivity index, ratio of CC50 for Influenza A virus (A/Brisbane/10/2007(H3N2)) infected MDCK cells to EC50 for antiviral activity against Influenza A virus (A/Brisbane/10/2007(H3N2)); type: toxicity, cell-based; settings: dog; read-out: Ratio CC50/EC50
# [11] = Selectivity index, ratio of CC50 for Influenza A virus (A/Viet Nam/1203/2004(H5N1)) infected MDCK cells to EC50 for antiviral activity against Influenza A virus (A/Viet Nam/1203/2004(H5N1)) infected in MDCK cells; type: toxicity, cell-based; settings: dog; read-out: Ratio CC50/EC50
structure (smiles),measurement,setting,value
COC(=O)[C@]1(C)CCC[C@]2(C)[C@H]3C[C@H]4C(C(C)C)=C[C@]3(CC[C@H]21)[C@@H]1/C(=N/O)CCC(=O)[C@@H]14,EC50,[1],> 2.4 µM
same,CC50,[2],31 µM
same,EC50,[3],> 1.7 µM
same,CC50,[4],13 µM
same,CC50,[5],1.7 µM
same,selectivity ratio,[6],1
same,EC50,[7],> 13 µM
same,CC50,[8],2.4 µM
same,EC50,[9],31 µM
COC(=O)[C@]1(C)CCC[C@]2(C)[C@H]3C[C@H]4C(C(C)C)=C[C@]3(CC[C@H]21)[C@H]1[C@@H]4[C@@H](OC(=O)/C=C/c2ccccc2)CC[C@@H]1OC(=O)C=Cc1ccccc1,EC50,[1],> 9.3 µM
same,CC50,[2],17 µM
same,EC50,[3],> 8.2 µM
same,CC50,[4],4 µM
same,CC50,[5],8.2 µM
same,EC50,[7],> 4 µM
same,CC50,[8],9.3 µM
same,EC50,[9],> 17 µM
COC(=O)[C@]1(C)CCC[C@]2(C)[C@H]3C[C@H]4C(C(C)C)=C[C@]3(CC[C@H]21)[C@H]1[C@@H]4[C@@H](O)CC[C@@H]1O,EC50,[1],> 100 µM
same,CC50,[2],93 µM
same,EC50,[3],> 100 µM
same,CC50,[4],64 µM
same,CC50,[5],> 100 µM
same,selectivity ratio,[6],1.9
same,EC50,[7],> 64 µM
same,CC50,[8],> 100 µM
same,EC50,[9],48 µM
COC(=O)[C@H]1[C@@H](C(=O)OC)[C@@]23C=C(C(C)C)[C@@H]1C[C@@H]2[C@@]1(C)CCC[C@@](C)(C(=O)OC)[C@@H]1CC3,CC50,[2],9.4 µM
same,CC50,[4],7.6 µM
same,selectivity ratio,[6],2.5
same,EC50,[7],> 7.6 µM
same,EC50,[9],3.8 µM
CC(C)C1=C[C@@]23CC[C@H]4[C@](C)(CO)CCC[C@]4(C)[C@H]2C[C@@H]1[C@@H]1[C@H]3[C@@H](O)CC[C@@H]1O,EC50,[1],> 31 µM
same,CC50,[2],11 µM
same,EC50,[3],> 29 µM
same,selectivity ratio,[10],1
same,CC50,[4],33 µM
same,CC50,[5],29 µM
same,EC50,[7],32 µM
same,CC50,[8],31 µM
same,EC50,[9],> 11 µM
COC(=O)[C@]1(C)CCC[C@]2(C)[C@H]3C[C@H]4C(C(C)C)=C[C@]3(CC[C@H]21)[C@@H]1C(=O)CC[C@H](OC(C)=O)[C@@H]14,EC50,[1],> 100 µM
same,CC50,[2],> 100 µM
same,EC50,[3],> 100 µM
same,CC50,[4],> 100 µM
same,CC50,[5],> 100 µM
same,EC50,[7],> 100 µM
same,CC50,[8],> 100 µM
same,EC50,[9],> 100 µM
CC(C)C1=C[C@@]23CC[C@H]4[C@](C)(COC(=O)/C=C/c5ccccc5)CCC[C@]4(C)[C@H]2C[C@@H]1[C@@H]1[C@H]3[C@@H](OC(=O)/C=C/c2ccccc2)CC[C@@H]1OC(=O)/C=C/c1ccccc1,EC50,[1],> 46 µM
same,CC50,[2],35 µM
same,EC50,[3],> 100 µM
same,selectivity ratio,[10],1.1
same,CC50,[4],33 µM
same,CC50,[5],> 100 µM
same,selectivity ratio,[6],1.1
same,EC50,[7],31 µM
same,CC50,[8],46 µM
same,EC50,[9],31 µM
COC(=O)[C@]1(C)CCC[C@]2(C)[C@H]3C[C@H]4C(C(C)C)=C[C@]3(CC[C@H]21)[C@@H]1C(=O)CC[C@H](O)[C@@H]14,EC50,[1],> 100 µM
same,CC50,[2],> 100 µM
same,EC50,[3],> 100 µM
same,CC50,[4],> 100 µM
same,CC50,[5],> 100 µM
same,EC50,[7],> 100 µM
same,CC50,[8],> 100 µM
same,EC50,[9],> 100 µM
COC(=O)[C@]1(C)CCC[C@]2(C)[C@H]3C[C@H]4C(C(C)C)=C[C@]3(CC[C@H]21)[C@@H]1/C(=N/O)CC[C@H](O)[C@@H]14,EC50,[1],> 1.2 µM
same,CC50,[2],3.5 µM
same,EC50,[3],> 1.2 µM
same,CC50,[4],1.6 µM
same,CC50,[5],1.2 µM
same,selectivity ratio,[6],1.1
same,EC50,[7],> 1.6 µM
same,CC50,[8],1.2 µM
same,EC50,[9],3.2 µM
CC(C)C1=C[C@@]23CC[C@@H]4[C@](C)(CCC[C@@]4(C)C(=O)O)[C@H]2C[C@@H]1[C@H]1C(=O)C=CC(=O)[C@H]13,EC50,[1],> 20 µM
same,CC50,[2],33 µM
same,EC50,[3],> 30 µM
same,CC50,[4],27 µM
same,CC50,[5],30 µM
same,selectivity ratio,[6],1
same,EC50,[7],> 27 µM
same,CC50,[8],20 µM
same,EC50,[9],32 µM
COC(=O)[C@]1(C)CCC[C@]2(C)[C@H]3C[C@@H]4[C@@H]5[C@H]6[C@H](OC(C)=O)CC[C@@H]5OC4(C(C)C)C[C@]63CC[C@H]21,EC50,[1],> 10 µM
same,CC50,[2],3.5 µM
same,EC50,[3],> 12 µM
same,CC50,[4],5 µM
same,CC50,[5],12 µM
same,selectivity ratio,[6],1.1
same,EC50,[7],> 5 µM
same,CC50,[8],10 µM
same,EC50,[9],3.2 µM
COC(=O)[C@]12CC[C@H](O)[C@H]1[C@@]13C=C(C(C)C)[C@@H]2C[C@@H]1[C@@]1(C)CCC[C@@](C)(C(=O)OC)[C@@H]1CC3,EC50,[1],> 3.1 µM
same,CC50,[2],35 µM
same,EC50,[3],3.2 µM
same,CC50,[4],24 µM
same,CC50,[5],3.2 µM
same,selectivity ratio,[11],1
same,selectivity ratio,[6],1.1
same,EC50,[7],> 24 µM
same,CC50,[8],3.1 µM
same,EC50,[9],32 µM
COC(=O)[C@]1(C)CCC[C@]2(C)[C@H]3C[C@H]4C(C(C)C)=C[C@]3(CC[C@H]21)[C@@H]1C(=O)C=CC(=O)[C@@H]14,EC50,[1],> 2.9 µM
same,CC50,[2],5.5 µM
same,EC50,[3],> 2.9 µM
same,selectivity ratio,[10],1.2
same,CC50,[4],3.9 µM
same,CC50,[5],2.9 µM
same,EC50,[7],3.2 µM
same,CC50,[8],2.9 µM
same,EC50,[9],> 5.5 µM
COC(=O)[C@]1(C)CCC[C@]2(C)[C@H]3C[C@H]4C(C(C)C)=C[C@]3(CC[C@H]21)[C@@H]1C(=O)CC[C@H](OC(=O)CCC(=O)O)[C@@H]14,EC50,[1],> 100 µM
same,CC50,[2],> 100 µM
same,EC50,[3],88 µM
same,CC50,[4],> 100 µM
same,CC50,[5],> 100 µM
same,selectivity ratio,[11],> 1.1
same,EC50,[7],> 100 µM
same,CC50,[8],> 100 µM
same,EC50,[9],> 100 µM
COC(=O)[C@]12CCC(=O)[C@H]1[C@@]13C=C(C(C)C)[C@@H]2C[C@@H]1[C@@]1(C)CCC[C@@](C)(C(=O)OC)[C@@H]1CC3,EC50,[1],> 31 µM
same,CC50,[2],34 µM
same,EC50,[3],32 µM
same,selectivity ratio,[10],1
same,CC50,[4],33 µM
same,CC50,[5],32 µM
same,selectivity ratio,[11],1
same,selectivity ratio,[6],1.1
same,EC50,[7],32 µM
same,CC50,[8],31 µM
same,EC50,[9],31 µM
COC(=O)[C@]1(C)CCC[C@]2(C)[C@H]3C[C@H]4C(C(C)C)=C[C@]3(CC[C@H]21)[C@@H]1C(=O)CCC2(OCCO2)[C@@H]14,EC50,[1],> 27 µM
same,CC50,[2],34 µM
same,EC50,[3],> 24 µM
same,CC50,[4],26 µM
same,CC50,[5],24 µM
same,selectivity ratio,[6],1.3
same,EC50,[7],> 26 µM
same,CC50,[8],27 µM
same,EC50,[9],27 µM
COC(=O)[C@]1(C)CCC[C@]2(C)[C@H]3C[C@H]4C(C(C)C)=C[C@]3(CC[C@H]21)[C@H]1[C@@H]4[C@@H](OC(=O)c2cccnc2)CC[C@@H]1OC(=O)c1cccnc1,EC50,[1],> 11 µM
same,CC50,[2],32 µM
same,EC50,[3],> 8.5 µM
same,CC50,[4],4.9 µM
same,CC50,[5],8.5 µM
same,selectivity ratio,[6],1.1
same,EC50,[7],> 4.9 µM
same,CC50,[8],11 µM
same,EC50,[9],29 µM
COC(=O)[C@]1(C)CCC[C@]2(C)[C@H]3C[C@H]4C(C(C)C)=C[C@]3(CC[C@H]21)[C@@H]1C(=O)OC(=O)[C@@H]14,EC50,[1],> 8.7 µM
same,CC50,[2],35 µM
same,EC50,[3],21 µM
same,selectivity ratio,[10],1
same,CC50,[4],33 µM
same,CC50,[5],32 µM
same,selectivity ratio,[11],1.5
same,selectivity ratio,[6],1.1
same,EC50,[7],32 µM
same,CC50,[8],8.7 µM
same,EC50,[9],31 µM
COC(=O)[C@]1(C)CCC[C@]2(C)[C@H]3C[C@@H]4[C@H]5[C@@H]6CCC(=O)[C@H]5[C@@]3(CC[C@H]21)CC4(C(C)C)O6,EC50,[1],> 100 µM
same,CC50,[2],> 100 µM
same,EC50,[3],> 100 µM
same,CC50,[4],> 100 µM
same,CC50,[5],> 100 µM
same,EC50,[7],> 100 µM
same,CC50,[8],> 100 µM
same,EC50,[9],> 100 µM
COC(=O)[C@]12C=CC(=O)[C@H]1[C@@]13C=C(C(C)C)[C@@H]2C[C@@H]1[C@@]1(C)CCC[C@@](C)(C(=O)OC)[C@@H]1CC3,EC50,[1],> 25 µM
same,CC50,[2],3.8 µM
same,EC50,[3],> 13 µM
same,selectivity ratio,[10],1.2
same,CC50,[4],3.9 µM
same,CC50,[5],13 µM
same,selectivity ratio,[6],1.2
same,EC50,[7],3.2 µM
same,CC50,[8],25 µM
same,EC50,[9],3.1 µM
COC(=O)[C@]1(C)CCC[C@]2(C)[C@H]3C[C@H]4C(C(C)C)=C[C@]3(CC[C@H]21)[C@@H]1/C(=N/OC(C)=O)CC[C@H](OC(C)=O)[C@@H]14,EC50,[1],> 2.8 µM
same,CC50,[2],4.8 µM
same,EC50,[3],> 2.5 µM
same,selectivity ratio,[10],1.1
same,CC50,[4],3.3 µM
same,CC50,[5],2.5 µM
same,EC50,[7],3.1 µM
same,CC50,[8],2.8 µM
same,EC50,[9],> 4.8 µM
COC(=O)[C@]1(C)CCC[C@]2(C)[C@H]3C[C@H]4C(C(C)C)=C[C@]3(CC[C@H]21)[C@@H]1C(=O)CC[C@H](OCCC#N)[C@@H]14,EC50,[1],> 52 µM
same,CC50,[2],> 100 µM
same,EC50,[3],> 31 µM
same,selectivity ratio,[10],2
same,CC50,[4],68 µM
same,CC50,[5],31 µM
same,EC50,[7],34 µM
same,CC50,[8],52 µM
same,EC50,[9],> 100 µM
